Source: article PMC8175350, “Drug repurposing screens identify chemical entities for the development of COVID-19 interventions” (Nature Communications, 2021)
Where two headings read alike, the source gives them in different places.

Key:
SARS-CoV-2 [1] = assay: microbe, parasite or virus in culture; format: cell-based; details: for Emax: Severe acute respiratory syndrome coronavirus 2, Calu-3, 48 h; for Calu-3 CoV-2 Sinf Average: curve-fit effect at infinite concentration
SARS-CoV-2 [2] = format: cell-based
SARS-CoV-2 [3] = assay: microbe, parasite or virus in culture; format: cell-based
HeLa-ACE2 cells [4] = assay: Total cell count in the HeLa-ACE2 TOA (time of addition) assay; format: cell-based, human; details: Homo sapiens, HeLa-ACE2; read-out: HeLa-ACE2 TOA cell count EC50 GeoMean
[5] = Uninfected HeLa-ACE2 24 h live/dead cytotoxicity counter screen; format: cell-based, human; details: human, uninfected HeLa-ACE2 cells
HeLa-ACE2 cells [6] = assay: as above; format: cell-based, human
[7] = human, cited from earlier work; for Approx. t1/2: ref [33]-[49]
in vitro = details: human
HEK293T = details: human, 72 h
HepG2 = details: human, 72 h
Calu-3 cells [8] = assay: cells; details: Homo sapiens; for Emax: Calu-3, 48 h
Calu-3 cells [9] = test system: Calu-3 cells
SARS-CoV-2 [10] = assay: microbe, parasite or virus in culture; format: cell-based; details: for HeLa-ACE2 CoV-2 Sinf Average: curve-fit effect at infinite concentration
HeLa-ACE2 cells [11] = assay: cells; details: Homo sapiens
HeLa-ACE2 cells [12] = test system: HeLa-ACE2 cells
Calu-3 cells [13] = details: for Calu-3 cell count Sinf Average: curve-fit effect at infinite concentration; for EC50: read-out: Calu-3 cell count EC50 GeoMean, unrounded geometric mean
Calu-3 cells [14] = assay: Uninfected Calu-3 48 h Cell-Titer Glo cytotoxicity counter screen
[15] = reconfirmed hits, read-out: HeLa-ACE2 Uninf. cells CC50
[16] = unrounded geometric mean, read-out: Calu-3 CoV-2 EC50 GeoMean
[17] = unrounded geometric mean, read-out: HeLa-ACE2 CoV-2 EC50 GeoMean
[18] = curve-fit effect at infinite concentration, average
[19] = unrounded geometric mean, read-out: HeLa-ACE2 uninfected cytotoxicity CC50 GeoMean
[20] = read-out: Calu-3 uninfected cytotoxicity CC50 GeoMean, unrounded geometric mean

COc1ccc2c(O[C@@H]3C[C@H]4C(=O)N[C@]5(C(=O)NS(=O)(=O)C6CC6)C[C@H]5/C=C\CCCCN(C)C(=O)[C@@H]4C3)cc(-c3nc(C(C)C)cs3)nc2c1C [Simeprevir]
Emax (SARS-CoV-2 [1]; read-out: Calu-3 CoV-2 Sinf Average): 100%
EC50 (SARS-CoV-2 [1]; Severe acute respiratory syndrome coronavirus 2, Calu-3, detail column, read-out: Calu-3 CoV-2 EC50 GeoMean): > 7.7 µM
EC50 (SARS-CoV-2 [1]; Severe acute respiratory syndrome coronavirus 2, Calu-3, reconfirmed hits, read-out: Calu-3 SARS-CoV-2 EC50): 7.7 µM
Calu-3 SI (SARS-CoV-2 [1]; selectivity index, uninfected Calu-3 CC50 / SARS-CoV-2 EC50): > 2.91
Synergy score with remdesivir (δ) (SARS-CoV-2 [2]; HeLa-ACE2): −0.67
HeLa-ACE2 synergy score with remdesivi (SARS-CoV-2 [2]; combination with remdesivir): -0.667 δ
Emax (SARS-CoV-2 [3]; Severe acute respiratory syndrome coronavirus 2, HeLa-ACE2, 10 h, read-out: HeLa-ACE2 TOA CoV-2 Sinf Average): 100%
EC50 (SARS-CoV-2 [3]; Severe acute respiratory syndrome coronavirus 2, HeLa-ACE2, read-out: HeLa-ACE2 TOA CoV-2 EC50 GeoMean): > 8.62 µM
EC50 (HeLa-ACE2 cells [4]): > 9.59 µM
CC50 at 24 h [5, 15]: > 22.2 µM
CC50 at 24 h ([5]; read-out: HeLa-ACE2 uninfected cytotoxicity CC50 GeoMean): > 22.2 µM
HeLa-ACE2 uninfected cytotoxicity Sinf Average (HeLa-ACE2 cells [6]; human, uninfected HeLa-ACE2 cells, 24 h): -100%
Cmax ([7]; in vivo, po): 32 µM
Approx. t1/2 [7]: 16 h
CC50 at 48 h (in vitro; Calu-3 Uninf. cells CC50 (µM)): > 22.4 µM
HEK293T 72-hour cytotoxicty Sinf Average (HEK293T): -102%
HepG2 72-hour cytotoxicity Sinf Average (HepG2): -100%
Emax (Calu-3 cells [8]; read-out: Calu-3 cell count Sinf Average): 100%
EC50 (Calu-3 cells [8]; Calu-3, read-out: Calu-3 cell count EC50 GeoMean): > 9.6 µM
uninfected Calu-3 CC50 (Calu-3 cells [9]): > 22.39 ×÷ 1.591 (n=6) μM
Calu-3 uninfected cytotoxicity Sinf Average (Calu-3 cells [9]; human, 48 h): -100%
Emax (SARS-CoV-2 [10]; Severe acute respiratory syndrome coronavirus 2, HeLa-ACE2, 24 h, read-out: HeLa-ACE2 CoV-2 Sinf Average): 100%
EC50 (SARS-CoV-2 [10]; Severe acute respiratory syndrome coronavirus 2, HeLa-ACE2, detail column, read-out: HeLa-ACE2 CoV-2 EC50 GeoMean): > 7.88 µM
EC50 (SARS-CoV-2 [10]; Severe acute respiratory syndrome coronavirus 2, HeLa-ACE2, reconfirmed hits, read-out: HeLa-ACE2 SARS-CoV-2 EC50): 7.88 µM
HeLa-ACE2 SI (SARS-CoV-2 [10]; selectivity index, uninfected HeLa-ACE2 CC50 / SARS-CoV-2 EC50): > 2.81
Emax (HeLa-ACE2 cells [11]; HeLa-ACE2, 24 h, read-out: HeLa-ACE2 cell count Sinf Average): 100%
EC50 (HeLa-ACE2 cells [11]; HeLa-ACE2, read-out: HeLa-ACE2 cell count EC50 GeoMean): > 9.47 µM

Oligomycin A
EC50 (SARS-CoV-2 [1]; [16]): < 0.00735 µM
EC50 (HeLa-ACE2 cells [12]; read-out: HeLa-ACE2 cell count EC50 GeoMean, unrounded geometric mean): > 9.59 µM
Calu-3 cell count Sinf Average (Calu-3 cells [13]): 50%
EC50 (Calu-3 cells [13]): > 0.22 µM
EC50 (SARS-CoV-2 [10]; [17]): > 9.59 µM

CC/C(=C(/c1ccc(/C=C/C(=O)O)cc1)c1ccc2[nH]ncc2c1)c1ccc(F)cc1Cl [ARN-810]
Emax (SARS-CoV-2 [1]; Sinf average of the curves, read-out: Calu-3 CoV-2 Sinf Average (%)): 71%
EC50 (SARS-CoV-2 [1]; Severe acute respiratory syndrome coronavirus 2, Calu-3, geometric mean of replicates, read-out: Calu-3 CoV-2 EC50 GeoMean): 1.1 µM
CC50 at 24 h ([5]; geometric mean of replicates, read-out: HeLa-ACE2 uninfected cytotoxicity CC50 GeoMean): 11 µM
HeLa-ACE2 uninfected cytotoxicity Sinf Average (%) (HeLa-ACE2 cells [6]; Sinf average of the curves): -99%
CC50 at 48 h (in vitro; Calu-3 uninfected cytotoxicity CC50 GeoMean (µM)): > 23.8 µM
Emax (Calu-3 cells [8]; read-out: Calu-3 cell count Sinf Average (%)): 79%
EC50 (Calu-3 cells [8]; Calu-3, read-out: Calu-3 cell count EC50 GeoMean (µM), geometric mean of replicates): > 3.06 µM
uninfected Calu-3 CC50 [μM] (Calu-3 cells [9]): > 23.843 ×÷ 1.22 (n=3) μM
Calu-3 uninfected cytotoxicity Sinf Average (%) (Calu-3 cells [9]; human, 48 h): -89%
HeLa-ACE2 cell count Sinf Average (%) (HeLa-ACE2 cells [12]; Sinf average of the curves): -100%
EC50 (SARS-CoV-2 [10]; Severe acute respiratory syndrome coronavirus 2, HeLa-ACE2, geometric mean of replicates, read-out: HeLa-ACE2 CoV-2 EC50 GeoMean): > 9.59 µM
EC50 (HeLa-ACE2 cells [11]; HeLa-ACE2, read-out: HeLa-ACE2 cell count EC50 GeoMean (µM), geometric mean of replicates): > 9.59 µM

Mitoguazone
Calu-3 CoV-2 Sinf Average (SARS-CoV-2 [1]): -94%
EC50 (SARS-CoV-2 [1]; reconfirmed hits, read-out: Calu-3 SARS-CoV-2 EC50): 0.446 µM
EC50 (SARS-CoV-2 [1]; [16]): 0.446 µM
HeLa-ACE2 uninfected cytotoxicity Sinf Average (HeLa-ACE2 cells [6]; [18]): -99%
CC50 (HeLa-ACE2 cells [6]; [15]): > 40 µM
CC50 (HeLa-ACE2 cells [6]; [19]): > 39.8 µM
Approx. t1/2 [7]: 175 h
Cmax ([7]; read-out: Approx. Cmax, IV, ref [44]): 120 µM
CC50 (Calu-3 cells [14]; read-out: Calu-3 Uninf. cells CC50, reconfirmed hits): > 30 µM
CC50 (Calu-3 cells [14]; [20]): > 29.9 µM
Calu-3 cell count Sinf Average (Calu-3 cells [13]): 71%
EC50 (Calu-3 cells [13]): > 4.07 µM
HeLa-ACE2 CoV-2 Sinf Average (SARS-CoV-2 [10]): -100%
EC50 (SARS-CoV-2 [10]; reconfirmed hits, read-out: HeLa-ACE2 SARS-CoV-2 EC50): > 9.6 µM
EC50 (SARS-CoV-2 [10]; [17]): > 9.59 µM

Deazaneplanocin A
Calu-3 CoV-2 Sinf Average (SARS-CoV-2 [1]): -85%
EC50 (SARS-CoV-2 [1]; [16]): 0.0568 µM
HeLa-ACE2 uninfected cytotoxicity Sinf Average (HeLa-ACE2 cells [6]; [18]): -79%
CC50 (HeLa-ACE2 cells [6]; [19]): > 7.95 µM
Calu-3 uninfected cytotoxicity Sinf Average (Calu-3 cells [14]; [18]): -70%
CC50 (Calu-3 cells [14]; [20]): > 10.3 µM
Calu-3 cell count Sinf Average (Calu-3 cells [13]): 62%
EC50 (Calu-3 cells [13]): 0.108 µM
HeLa-ACE2 CoV-2 Sinf Average (SARS-CoV-2 [10]): -100%
EC50 (SARS-CoV-2 [10]; [17]): > 9.59 µM
